Data: ChEMBL document CHEMBL4483862, “Open-source discovery of chemical leads for next-generation chemoprotective antimalarials” (2018)

Tested on: Plasmodium berghei
Test: Luciferase/luciferin-expressing antifolate-resistant parasites were used to infect a culture of HepG2 cells that were pre-incubated with compounds. Infected hepatocytes emit light due to the luciferase reaction. Assay results are presented as the percent inhibition of light emission compared to control. […]
Assay type: functional
Conditions: sporozoite; for IC90: read-out: LUCIFERASE INFECTION ASSAY - IC90
[1] = read-out: LUCIFERASE INFECTION ASSAY - IC50

SMILES | IC90 [µM] | also measured
CC(C)(C)c1ccc(C(=O)Nc2nnc(Sc3ccc([N+](=O)[O-])cc3C#N)s2)cc1 | 4.98 | IC50 (PBLUC_HILL_SLOPE 0.682, PBLUC_R_SQUARED 0.567, read-out: LUCIFERASE INFECTION ASSAY - IC50): 0.198 µM
Cc1nc(SCC(=O)N(C)Cc2cnn(Cc3ccccc3)c2)c2c(C)c(C)sc2n1 | > 10 | IC50 [1]: > 10 µM
COc1ccc(CCNC(=S)NC(=O)c2c(-c3ccccc3Cl)noc2C)cc1OC | > 7.17 | IC50 (PBLUC_HILL_SLOPE 1.8, PBLUC_R_SQUARED 0.103, read-out: LUCIFERASE INFECTION ASSAY - IC50): > 7.17 µM
O=C(Nc1ccccc1Cc1ccccc1)c1ccccc1NS(=O)(=O)c1ccc(Cl)s1 | 3.48 | IC50 (FFLUC_HILL_SLOPE 7.32, FFLUC_R_SQUARED 0.665, HEPG2TOX_HILL_SLOPE 2.07, HEPG2TOX_R_SQUARED 0.984, PBLUC_HILL_SLOPE 54.5, PBLUC_R_SQUARED 0.445, read-out: LUCIFERASE INFECTION ASSAY - IC50): 3.34 µM
Cc1cc2ncc(-c3ccnc(SCC(=O)Nc4ccc(Cl)cc4Cl)n3)c(C)n2n1 | > 7.18 | IC50 (PBLUC_HILL_SLOPE 0.44, PBLUC_R_SQUARED 0.0613, read-out: LUCIFERASE INFECTION ASSAY - IC50): > 7.18 µM
CC(C)(C)c1ccc(C2Nc3ccccc3C(=O)N2C2CC2)cc1 (stereo not given) | 9.91 | IC50 (PBLUC_HILL_SLOPE 18.7, PBLUC_R_SQUARED 0.174, read-out: LUCIFERASE INFECTION ASSAY - IC50): 8.81 µM
COc1cccc(Nc2nccc3nc(-c4ccc(F)c(F)c4)[nH]c23)c1 | > 10 | IC50 (HEPG2TOX_HILL_SLOPE 7.52, HEPG2TOX_R_SQUARED 0.793, PBLUC_HILL_SLOPE 2.32, PBLUC_R_SQUARED 0.606, read-out: LUCIFERASE INFECTION ASSAY - IC50): 4.06 µM
COc1ccc(-c2cnc3ccc(NCc4ccc(S(N)(=O)=O)cc4)nn23)cn1 | > 8.04 | IC50 (HEPG2TOX_HILL_SLOPE 2.67, HEPG2TOX_R_SQUARED 0.289, PBLUC_HILL_SLOPE 3.8, PBLUC_R_SQUARED 0.626, read-out: LUCIFERASE INFECTION ASSAY - IC50): 4.71 µM
CCCc1cc(NCCN(C)C)n2ncc(-c3ccccc3)c2n1 | > 10.2 | IC50 (PBLUC_HILL_SLOPE 2.98, PBLUC_R_SQUARED 0.437, read-out: LUCIFERASE INFECTION ASSAY - IC50): 4.93 µM
NC(=O)C1CN(S(=O)(=O)c2cc(Cl)sc2Cl)c2ccccc2O1 (stereo not given) | > 10 | IC50 [1]: > 10 µM
O=S(=O)(Nc1ccc(Cl)cc1)c1cc(NC(=S)Nc2ccc(Oc3ccccc3)cc2)ccc1N1CCCCC1 | > 10 | IC50 (FFLUC_HILL_SLOPE 10.3, FFLUC_R_SQUARED 0.0303, PBLUC_HILL_SLOPE 13.4, PBLUC_R_SQUARED 0.215, read-out: LUCIFERASE INFECTION ASSAY - IC50): > 10 µM
N#Cc1ccc(-c2cnc3cnc(-c4cccc(C(N)=O)c4)cn23)cc1 | 8.67 | IC50 (PBLUC_HILL_SLOPE 12.9, PBLUC_R_SQUARED 0.447, read-out: LUCIFERASE INFECTION ASSAY - IC50): 7.32 µM
NS(=O)(=O)c1ccc2c(c1)CCN2Cc1ccc(Cl)cc1 | > 2 | IC50 [1]: > 2 µM
Clc1ccc(-c2cnc3sc(NCCc4ccncc4)nn23)cc1 | > 9.27 | IC50 [1]: > 9.27 µM
CN(CCO)c1ccc(C(=O)c2ccc(N(C)CCO)cc2)cc1 | 9.22 | IC50 (HEPG2TOX_HILL_SLOPE 1.17, HEPG2TOX_R_SQUARED 0.868, PBLUC_HILL_SLOPE 1.55, PBLUC_R_SQUARED 0.285, read-out: LUCIFERASE INFECTION ASSAY - IC50): 2.24 µM
N#Cc1c(SCC(=O)c2ccccc2)nc2c(c1-c1cccs1)CCCC2 | > 8.45 | IC50 (FFLUC_HILL_SLOPE 16.5, FFLUC_R_SQUARED 0.662, PBLUC_HILL_SLOPE 1.37, PBLUC_R_SQUARED 0.669, read-out: LUCIFERASE INFECTION ASSAY - IC50): 3.67 µM
Nn1c(SCc2cc(F)cc3c2OC(c2ccccc2)OC3)nnc1-c1ccc(OC(F)F)cc1 (stereo not given) | > 10 | IC50 (FFLUC_HILL_SLOPE 12.2, FFLUC_R_SQUARED 0.768, read-out: LUCIFERASE INFECTION ASSAY - IC50): > 10 µM
CC(C)(C)c1cnc(CSc2nc3ccc(Cl)cc3[nH]2)o1 | > 10 | IC50 (HEPG2TOX_HILL_SLOPE 0.519, HEPG2TOX_R_SQUARED 0.541, PBLUC_HILL_SLOPE 2.57, PBLUC_R_SQUARED 0.344, read-out: LUCIFERASE INFECTION ASSAY - IC50): 5.12 µM
COc1ccccc1CNc1ccnc2cc(Cl)ccc12 | 3.82 | IC50 (HEPG2TOX_HILL_SLOPE 2.2, HEPG2TOX_R_SQUARED 0.908, PBLUC_HILL_SLOPE 13.6, PBLUC_R_SQUARED 0.424, read-out: LUCIFERASE INFECTION ASSAY - IC50): 3.25 µM
Cc1ccc(-c2nn(-c3ccccc3)cc2/C=N/Nc2ncnc(N)c2[N+](=O)[O-])o1 | 1.28 | IC50 (FFLUC_HILL_SLOPE 2.88, FFLUC_R_SQUARED 0.103, HEPG2TOX_HILL_SLOPE 0.791, HEPG2TOX_R_SQUARED 0.887, PBLUC_HILL_SLOPE 4.72, PBLUC_R_SQUARED 0.877, read-out: LUCIFERASE INFECTION ASSAY - IC50): 0.806 µM

SMILES | IC90 [µM] | also measured
CC(=O)Nc1cccc(-c2cn3c(-c4ccc5ncccc5c4)cnc3cn2)c1 | > 8.7 | IC50 (PBLUC_HILL_SLOPE 2.19, PBLUC_R_SQUARED 0.526, read-out: LUCIFERASE INFECTION ASSAY - IC50): 5.14 µM
CCN(Cc1ccc(OCc2ccccc2)cc1)C(=O)CN1CCc2cc(S(N)(=O)=O)ccc21 | > 10 | IC50 (HEPG2TOX_HILL_SLOPE 0.311, HEPG2TOX_R_SQUARED 0.495, read-out: LUCIFERASE INFECTION ASSAY - IC50): > 10 µM
CN(C)c1ccc(C(c2ccc(N(C)C)cc2)c2ccc(N(C)C)c(C#N)c2F)cc1 | > 7.92 | IC50 (FFLUC_HILL_SLOPE 2.97, FFLUC_R_SQUARED 0.397, HEPG2TOX_HILL_SLOPE 0.327, HEPG2TOX_R_SQUARED 0.744, PBLUC_HILL_SLOPE 0.914, PBLUC_R_SQUARED 0.465, read-out: LUCIFERASE INFECTION ASSAY - IC50): 6.07 µM
O=C(CN1C(=O)CSc2ccc(C(F)(F)F)cc21)Nc1ccc(Cl)cc1 | 3.03 | IC50 (PBLUC_HILL_SLOPE 15.8, PBLUC_R_SQUARED 0.354, read-out: LUCIFERASE INFECTION ASSAY - IC50): 2.64 µM
CCOc1ccccc1/C=C/C(=O)OCC(=O)Nc1ccccc1-c1ccccc1 | 3.67 | IC50 (HEPG2TOX_HILL_SLOPE 2.07, HEPG2TOX_R_SQUARED 0.949, PBLUC_HILL_SLOPE 25.6, PBLUC_R_SQUARED 0.535, read-out: LUCIFERASE INFECTION ASSAY - IC50): 3.37 µM
NCCCNc1ccnc2cc(Cl)ccc12 | > 14 | IC50 (PBLUC_HILL_SLOPE 2.91, PBLUC_R_SQUARED 0.438, read-out: LUCIFERASE INFECTION ASSAY - IC50): 8.74 µM
CSc1nc2c(c(=O)n(C)c(=O)n2C)n1Cc1cccc(C(F)(F)F)c1 | > 8.59 | IC50 (HEPG2TOX_HILL_SLOPE 6.71, HEPG2TOX_R_SQUARED 0.561, read-out: LUCIFERASE INFECTION ASSAY - IC50): > 8.59 µM
COc1ccccc1N(C(=O)c1cccc(C#N)c1)c1nc2ccccc2s1 | > 10 | IC50 [1]: > 10 µM
Cc1ccc(Oc2ccc(S(=O)(=O)NCCN(C)C)cc2)cc1 | > 10 | IC50 [1]: > 10 µM
CCCCN(C)S(=O)(=O)c1ccc(NC(=O)c2ccc3nccnc3c2)cc1 | > 10 | IC50 [1]: > 10 µM
CCN1CCN(c2ccc(S(=O)(=O)N3CCOCC3)cc2NC(=O)/C=C/c2ccc([N+](=O)[O-])cc2)CC1 | > 10 | IC50 (PBLUC_HILL_SLOPE 11, PBLUC_R_SQUARED 0.478, read-out: LUCIFERASE INFECTION ASSAY - IC50): 8.35 µM
Cn1c(N)c(C(=O)COC(=O)c2cc(-c3ccccc3)nc3ccc(Br)cc23)c(=O)n(C)c1=O | > 10 | IC50 [1]: > 10 µM
COc1cccc(Nc2nccc3[nH]c(-c4cccc(F)c4)cc23)c1 | 2.27 | IC50 (HEPG2TOX_HILL_SLOPE 2.76, HEPG2TOX_R_SQUARED 0.828, PBLUC_HILL_SLOPE 2.74, PBLUC_R_SQUARED 0.773, read-out: LUCIFERASE INFECTION ASSAY - IC50): 1.02 µM
Clc1ccc(-c2nc(-c3ccccc3)c(-c3ccccc3)n2CCc2ccc(Cl)cc2Cl)cc1 | > 10 | IC50 (PBLUC_HILL_SLOPE 13, PBLUC_R_SQUARED 0.179, read-out: LUCIFERASE INFECTION ASSAY - IC50): 9.63 µM
Clc1ccc2c(c1)nnc1nnnn12 | 1.91 | IC50 [1]: 1.66 µM
CCOC(=O)c1[nH]c(C)c(C(=O)OCC(=O)Nc2ccc(Cl)cn2)c1C | 2.91 | IC50 (HEPG2TOX_HILL_SLOPE 0.952, HEPG2TOX_R_SQUARED 0.987, PBLUC_HILL_SLOPE 2.41, PBLUC_R_SQUARED 0.555, read-out: LUCIFERASE INFECTION ASSAY - IC50): 1.17 µM
NC(=O)N/N=C/c1ccc(Cl)cc1 | > 16.7 | IC50 [1]: > 16.7 µM
Cc1ccc2cc(Cn3cc(Br)ccc3=O)c(Cl)nc2c1C | 3.58 | IC50 (PBLUC_HILL_SLOPE 15.2, PBLUC_R_SQUARED 0.445, read-out: LUCIFERASE INFECTION ASSAY - IC50): 3.1 µM
O=C(Nc1cccc([N+](=O)[O-])c1)c1[nH]nc2ccccc12 | 2.96 | IC50 (FFLUC_HILL_SLOPE 1.37, FFLUC_R_SQUARED 0.513, PBLUC_HILL_SLOPE 0.728, PBLUC_R_SQUARED 0.84, read-out: LUCIFERASE INFECTION ASSAY - IC50): 0.145 µM
CC(C)C(Nc1ccc(C(F)(F)F)cc1Cl)C(=O)Nc1ccc(-n2cncn2)nc1 (stereo not given) | > 10 | IC50 (HEPG2TOX_HILL_SLOPE 1.66, HEPG2TOX_R_SQUARED 0.94, PBLUC_HILL_SLOPE 0.872, PBLUC_R_SQUARED 0.779, read-out: LUCIFERASE INFECTION ASSAY - IC50): 2.14 µM
